These are literature values, as cited in PMC7651685 (Psychopharmacology, 2020).

The subject of series [1] is dopamine efflux in the nucleus accumbens. Details: method as in Rowley et al. [2017]. The note with it: rat nucleus accumbens microdialysis; ref Rowley et al. [2017]; cited from earlier work.
Series [2] has as its system DAT. The note with it: ref Markowitz et al. [2006]; read-out: Affinity for DAT, IC50; cited from earlier work.
For series [3] the following is noted: no reference given; cited from earlier work.

Turning to `C[C@H](N)Cc1ccccc1` [d-amphetamine], the “Time of peak of dopamine efflux” value in series [1] was 40 min.

On to `COC(=O)[C@H](c1ccccc1)[C@H]1CCCCN1` [d-threo methylphenidate, reference compound], for which the IC50 (in general, the concentration needed to halve the response being measured) in series [2] was […].

For the molecule `CC(C)(N)Cc1ccccc1` [phentermine], in series [1], the “Time of peak of dopamine efflux” value is given as 40 min.

As for `O=C(O)C(c1ccccc1)C1CCCCN1` (stereo not shown) [ritalinic acid], the Pharmacological activity result in series [3] was “pharmacologically inactive”.
